Read-outs that look alike come from different tables or passages of the source.
How the values were obtained:
BT-549 = assay: NCI screen, BT-549 (Breast Cancer); details: BT-549, 48 hour exposure
Method: (§1) The compounds of this invention were also tested against the panel of 60 human cancer cell lines at the National Cancer Institute, Bethesda, Md. (44). The cytrotoxicity studies were conducted using a 48 hour exposure, and measuring the optical density of sulforhodamide B-derived color.

SNB-19 = assay: NCI screen, SNB-19 (CNS Cancer)
Method: (§2) The compounds of this invention were also tested against the panel of 60 human cancer cell lines at the National Cancer Institute, Bethesda, Md. […] The cytrotoxicity studies were conducted using a 48 hour exposure, and measuring the optical density of sulforhodamide B-derived color.

MDA-MB-231/ATCC = details: MDA-NB-231/ATCC, 48 hour exposure
UO-31 = assay: NCI screen, UO-31 (Renal Cancer); details: UO-31, 48 hour exposure
Method: as §2

OVCAR-8 = assay: NCI screen, OVCAR-8 (Ovarian Cancer); details: OVCAR-8, 48 hour exposure
Method: as §1

NCI-H23 = assay: NCI screen, NCI-H23 (Non-Small Cell Lung Cancer)
Method: as §2

MCF7/ADR-RES = assay: NCI screen, MCF7/ADR-RES (Breast Cancer); format: cell-based, human; details: NCI/ADR-RES, 48 hour exposure
Method: as §2

SNB-75 = assay: NCI screen, SNB-75 (CNS Cancer); details: SNB-75, 48 hour exposure
Method: as §2

UACC-257 = assay: NCI screen, UACC-257 (Melanoma)
Method: as §2

LOX IMVI = assay: NCI screen, LOX IMVI (Melanoma); details: LOX IMVI, 48 hour exposure
Method: as §1

NCI-H322M = details: NCI-H322M; Log10 Concentration −5.3; 48 hour exposure
OVCAR-3 = assay: NCI screen, OVCAR-3 (Ovarian Cancer)
Method: as §2

ACHN = format: cell-based, human
M14 = assay: NCI screen, M14 (Melanoma); details: M14, 48 hour exposure
Method: as §2

CCRF-CEM = assay: NCI screen, CCRF-CEM (Leukemia)
Method: as §2

SR = assay: NCI screen, SR (Leukemia)
Method: as §2

HS 578T = assay: NCI screen, HS 578T (Breast Cancer); details: HS 578T, 48 hour exposure
Method: as §1

HCC-2998 = assay: NCI screen, HCC-2998 (Colon Cancer)
Method: as §2

MOLT-4 = assay: NCI screen, MOLT-4 (Leukemia)
Method: as §2

U251 = assay: NCI screen, U251 (CNS Cancer); details: U251, 48 hour exposure
Method: as §2

HT29 = assay: NCI screen, HT29 (Colon Cancer)
Method: as §2

SK-MEL-2 = assay: NCI screen, SK-MEL-2 (Melanoma)
Method: as §2

[1] = Log10 Concentration −4.3, 48 hour exposure
[2] = Log10 Concentration −5.3, 48 hour exposure
[3] = Log10 Concentration −6.3, 48 hour exposure
[4] = Log10 Concentration −7.3, 48 hour exposure
[5] = Log10 Concentration −8.3, 48 hour exposure

COC(=O)c1[nH]c2c(O)cc(NC(=O)c3cc4cc(OC)c(OC)c(OC)c4[nH]3)c(CCCl)c2c1C(=O)OC [Compound 22, Dimethyl 4-(2-chloroethyl)-7-hydroxy-5-(5,6,7-trimethoxyindole-2-carboxamido)indole-2,3-dicarboxylate]
TGI (BT-549): 1.23E−05 Molar | Percent Growth (BT-549; Log10 Concentration −4.3): −39% | Percent Growth (BT-549; Log10 Concentration −5.3): 25% | Percent Growth (BT-549; Log10 Concentration −6.3): 42% | Percent Growth (BT-549; Log10 Concentration −7.3): 85% | Percent Growth (BT-549; Log10 Concentration −8.3): 91% | TGI (SNB-19; 48 hour exposure): 1.64E−05 Molar | Percent Growth (SNB-19; [1]): −7% | Percent Growth (SNB-19; [2]): 7% | Percent Growth (SNB-19; [3]): 21% | Percent Growth (SNB-19; [4]): 83% | Percent Growth (SNB-19; [5]): 89% | TGI (MDA-MB-231/ATCC): > 5.00E−05 Molar | Percent Growth (MDA-MB-231/ATCC; Log10 Concentration −4.3): 10% | Percent Growth (MDA-MB-231/ATCC; Log10 Concentration −5.3): 12% | Percent Growth (MDA-MB-231/ATCC; Log10 Concentration −6.3): 16% | Percent Growth (MDA-MB-231/ATCC; Log10 Concentration −7.3): 89% | Percent Growth (MDA-MB-231/ATCC; Log10 Concentration −8.3): 99% | Percent Growth (UO-31; Log10 Concentration −4.3): 8% | Percent Growth (UO-31; Log10 Concentration −5.3): 5% | Percent Growth (UO-31; Log10 Concentration −6.3): −47% | Percent Growth (UO-31; Log10 Concentration −7.3): 91% | Percent Growth (UO-31; Log10 Concentration −8.3): 96% | TGI (OVCAR-8): 2.33E−07 Molar | Percent Growth (OVCAR-8; Log10 Concentration −4.3): −64% | Percent Growth (OVCAR-8; Log10 Concentration −5.3): −65% | Percent Growth (OVCAR-8; Log10 Concentration −6.3): −32% | Percent Growth (OVCAR-8; Log10 Concentration −7.3): 65% | Percent Growth (OVCAR-8; Log10 Concentration −8.3): 86% | TGI (NCI-H23; 48 hour exposure): 5.63E−06 Molar | Percent Growth (NCI-H23; [1]): −25% | Percent Growth (NCI-H23; [2]): 1% | Percent Growth (NCI-H23; [3]): 9% | Percent Growth (NCI-H23; [4]): 56% | Percent Growth (NCI-H23; [5]): 83% | TGI (MCF7/ADR-RES): 8.17E−07 Molar | Percent Growth (MCF7/ADR-RES; Log10 Concentration −4.3): −41% | Percent Growth (MCF7/ADR-RES; Log10 Concentration −5.3): −58% | Percent Growth (MCF7/ADR-RES; Log10 Concentration −6.3): 16% | Percent Growth (MCF7/ADR-RES; Log10 Concentration −7.3): 77% | Percent Growth (MCF7/ADR-RES; Log10 Concentration −8.3): 97% | TGI (SNB-75): 1.90E−07 Molar | Percent Growth (SNB-75; Log10 Concentration −4.3): −51% | Percent Growth (SNB-75; Log10 Concentration −5.3): −84% | Percent Growth (SNB-75; Log10 Concentration −6.3): −44% | Percent Growth (SNB-75; Log10 Concentration −7.3): 60% | Percent Growth (SNB-75; Log10 Concentration −8.3): 77% | TGI (UACC-257; 48 hour exposure): 2.25E−05 Molar | Percent Growth (UACC-257; [1]): −10% | Percent Growth (UACC-257; [2]): 19% | Percent Growth (UACC-257; [3]): 6% | Percent Growth (UACC-257; [4]): 99% | Percent Growth (UACC-257; [5]): 101% | TGI (LOX IMVI): 3.84E−07 Molar | Percent Growth (LOX IMVI; Log10 Concentration −4.3): −61% | Percent Growth (LOX IMVI; Log10 Concentration −5.3): −23% | Percent Growth (LOX IMVI; Log10 Concentration −6.3): −9% | Percent Growth (LOX IMVI; Log10 Concentration −7.3): 66% | Percent Growth (LOX IMVI; Log10 Concentration −8.3): 81% | Percent Growth (NCI-H322M): −8% | TGI (OVCAR-3; 48 hour exposure): 6.80E−06 Molar | Percent Growth (OVCAR-3; [1]): −82% | Percent Growth (OVCAR-3; [2]): 13% | Percent Growth (OVCAR-3; [3]): 4% | Percent Growth (OVCAR-3; [4]): 87% | Percent Growth (OVCAR-3; [5]): 97% | TGI (ACHN): 5.95E−06 Molar | TGI (M14): 1.68E−07 Molar | Percent Growth (M14; Log10 Concentration −4.3): −92% | Percent Growth (M14; Log10 Concentration −5.3): −90% | Percent Growth (M14; Log10 Concentration −6.3): −69% | Percent Growth (M14; Log10 Concentration −7.3): 77% | Percent Growth (M14; Log10 Concentration −8.3): 105% | TGI (CCRF-CEM; 48 hour exposure): >5.00E−05 Molar | Percent Growth (CCRF-CEM; [1]): 17% | Percent Growth (CCRF-CEM; [2]): 18% | Percent Growth (CCRF-CEM; [3]): 19% | Percent Growth (CCRF-CEM; [4]): 43% | Percent Growth (CCRF-CEM; [5]): 77% | TGI (SR; 48 hour exposure): >5.00E−05 Molar | CC50 (SR; Homo sapiens, 48 h, read-out: LC50): > 50 µM | Percent Growth (SR; [1]): 20% | Percent Growth (SR; [2]): 27% | Percent Growth (SR; [3]): 21% | Percent Growth (SR; [4]): 28% | Percent Growth (SR; [5]): 51% | TGI (HS 578T): 2.80E−07 Molar | Percent Growth (HS 578T; Log10 Concentration −4.3): −54% | Percent Growth (HS 578T; Log10 Concentration −5.3): −73% | Percent Growth (HS 578T; Log10 Concentration −6.3): −41% | Percent Growth (HS 578T; Log10 Concentration −7.3): 122% | Percent Growth (HS 578T; Log10 Concentration −8.3): 130% | TGI (HCC-2998; 48 hour exposure): 2.89E−07 Molar | Percent Growth (HCC-2998; [1]): −88% | Percent Growth (HCC-2998; [2]): −31% | Percent Growth (HCC-2998; [3]): −27% | Percent Growth (HCC-2998; [4]): 85% | Percent Growth (HCC-2998; [5]): 91% | TGI (MOLT-4; 48 hour exposure): >5.00E−05 Molar | Percent Growth (MOLT-4; [1]): 22% | Percent Growth (MOLT-4; [2]): 20% | Percent Growth (MOLT-4; [3]): 21% | Percent Growth (MOLT-4; [4]): 28% | Percent Growth (MOLT-4; [5]): 61% | TGI (U251): 8.44E−06 Molar | Percent Growth (U251; Log10 Concentration −4.3): −40% | Percent Growth (U251; Log10 Concentration −5.3): 12% | Percent Growth (U251; Log10 Concentration −6.3): 11% | Percent Growth (U251; Log10 Concentration −7.3): 74% | Percent Growth (U251; Log10 Concentration −8.3): 89% | TGI (HT29; 48 hour exposure): 2.28E−07 Molar | Percent Growth (HT29; [1]): −55% | Percent Growth (HT29; [2]): −59% | Percent Growth (HT29; [3]): −32% | Percent Growth (HT29; [4]): 63% | Percent Growth (HT29; [5]): 84% | TGI (SK-MEL-2; 48 hour exposure): 1.69E−07 Molar | Percent Growth (SK-MEL-2; [1]): −87% | Percent Growth (SK-MEL-2; [2]): −74% | Percent Growth (SK-MEL-2; [3]): −78% | Percent Growth (SK-MEL-2; [4]): 87% | Percent Growth (SK-MEL-2; [5]): 89%

Source: patent US6660742B2, “Compositions and methods of the use thereof achiral analogues of CC-1065 and the duocarmycins” (priority 2000, dated 2003)
